# Measurements taken from patent US11951105B2 (Lake O'Hara LLC, priority 2020, dated 2024).
# Key:
# CYP2D6 = conditions: cited from earlier work
# [1] = PBPK modeling of schizophrenia patients treated according to modified dosing regimens; parameters: species or system human; conditions: for Days Reduced to Reach Pharmacokinetic Endpoints: EC80 / Days Reduced to Reach Pharmacokinetic Endpoints: Steady State: modified regimen of Table F vs FDA label, Obese
# Text: In order to simulate brexpiprazole under various conditions, a whole-body PBPK model was constructed to capture the drug's kinetics in major tissues. Model tissue compartments included adipose, bone, brain, large intestine, small intestine, heart, kidney, liver, lung, muscle, spleen, stomach, and skin tissues, as well as venous and arterial blood compartments. In order to accurately capture first-pass clearance effects on the drug, the model also included correct representation of the gastrointestinal tract organs and the liver. […] Drug distribution into each tissue compartment was modeled assuming perfusion-limited kinetics, with partitioning into tissue described by a partition coefficient (Kp) estimated using methods described by Poulin and Theil (2002). Brexpiprazole-specific biochemical parameters such as the log of octanol:water partition coefficient (log P), negative log acid dissociation constant (pKa), fraction unbound in the plasma (fup), blood:plasma concentration ratio (BP), and clearance were obtained from literature; additional physiochemical properties used to calculate Kps were obtained via DrugBank. […] Simulations were carried out in a virtual population of 500 normal-weight and 500 obese individuals with age- and sex-specific physiological parameters (i.e. tissue flows and volumes) sampled from the National Health and Nutrition Examination Survey (NHANES) dataset.
# PBPK Modeling of Schizophrenia Patients Treated with Higher Doses According to Modified Methods
# A modified dosing regimen was developed so that obese and CYP2D6 PM patients reach therapeutic levels earlier (Table F). […] On day 8, patients returned to administering the recommended dose once daily. […] On day 15, patients returned to administering the recommended dose once daily.
# [2] = brexpiprazole patients; cited from earlier work
# CYP3A4 = CYP3A4 (Homo sapiens, UniProt P08684); conditions: based on the literature; cited from earlier work
# Chain of CYP3A4 (P08684 whole entry): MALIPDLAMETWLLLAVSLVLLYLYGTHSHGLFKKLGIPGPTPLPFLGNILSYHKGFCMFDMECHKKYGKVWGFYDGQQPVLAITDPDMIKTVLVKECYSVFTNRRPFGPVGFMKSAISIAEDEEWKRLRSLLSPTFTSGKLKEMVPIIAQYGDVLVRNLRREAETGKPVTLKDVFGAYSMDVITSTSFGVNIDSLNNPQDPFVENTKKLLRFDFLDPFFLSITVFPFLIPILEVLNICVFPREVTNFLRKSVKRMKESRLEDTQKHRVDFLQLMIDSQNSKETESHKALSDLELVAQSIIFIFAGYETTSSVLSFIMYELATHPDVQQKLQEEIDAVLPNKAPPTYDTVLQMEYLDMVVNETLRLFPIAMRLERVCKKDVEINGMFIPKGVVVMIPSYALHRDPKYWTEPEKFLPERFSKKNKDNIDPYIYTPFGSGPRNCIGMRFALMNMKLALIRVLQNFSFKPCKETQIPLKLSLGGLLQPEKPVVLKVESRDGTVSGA
# [3] = cited from earlier work
smiles,measurement,setting,value
"O=c1ccc2ccc(OCCCCN3CCN(c4cccc5sccc45)CC3)cc2[nH]1 [brexpiprazole, 7-{4-[4-(1-Benzothiophen-4-yl)piperazin-1-yl]butoxy}quinolin-2(1H)-one]",decrease of baseline clearance by CYP2D6 PM status,CYP2D6; CYP2D6 poor metabolizers,~30%
same,share of brexpiprazole clearance due to CYP2D6,CYP2D6; based on the literature,43.3%
same,Days Reduced to Reach Pharmacokinetic Endpoints: EC80,[1]; CYP2D6 EM,3 days
same,Days Reduced to Reach Pharmacokinetic Endpoints: Steady State,[1]; CYP2D6 EM,-4 days
same,Days Reduced to Reach Pharmacokinetic Endpoints: EC80,[1]; CYP2D6 PM,5 days
same,Days Reduced to Reach Pharmacokinetic Endpoints: Steady State,[1]; CYP2D6 PM,-29 days
same,days faster to reach therapeutic concentrations than once daily dosing,"[1]; schizophrenia, normal-weight CYP2D6 PM, Modified Dosing Regimen 3",three
same,days faster to reach therapeutic concentrations than with FDA label dosing,"[1]; schizophrenia, obese CYP2D6 EM, twice the daily doses for the first 7 days (Regimen 1)",three
same,days faster to reach therapeutic concentrations than once daily dosing,"[1]; schizophrenia, obese CYP2D6 PM, twice the daily doses for the first 14 days (Regimen 2)",five
same,akathisia rates,[2],dose-dependent
same,share of brexpiprazole clearance due to CYP3A4,CYP3A4,46.7%
same,share of brexpiprazole clearance due to other routes,[3]; based on the literature,10%
same,effect of weight on the pharmacokinetics of brexpiprazole,[3]; previous studies,less than 20%
same,renal clearance,"[3]; share of clearance, model assumption",~1%
